Columns and labels:
[1] = tested on: experimental ophthalmitis induced by bovine serum albumin in white rabbits (ophthalmitis I); test: Anti-inflammatory effect in ophthalmitis I (bovine serum albumin injected into the vitreous), gross severity scores; assay type: in vivo; settings: for Anterior chamber opacity, degree of inhibition relative to physiological saline group / Balbar conjunctival injection, degree of inhibition relative to physiological saline group / Corneal opacity, degree of inhibition relative to physiological saline group / Discharge, degree of inhibition relative to physiological saline group / External + Internal Grand Total Score, degree of inhibition relative to physiological saline group / External Segment Total Score, degree of inhibition relative to physiological saline group / Internal Segment Total Score, degree of inhibition relative to physiological saline group / Iridic injection, degree of inhibition relative to physiological saline group / Morphological change of iris, degree of inhibition relative to physiological saline group / Palpebral conjunctival edema, degree of inhibition relative to physiological saline group / Palpebral conjunctival injection, degree of inhibition relative to physiological saline group / Anterior chamber opacity score (Internal Segment) / Balbar conjunctival injection score (External Segment) / Corneal opacity score (External Segment) / Discharge score (External Segment) / External + Internal Grand Total Score / External Segment Total Score / Internal Segment Total Score / Iridic injection score (Internal Segment) / Morphological change of iris score (Internal Segment) / Palpebral conjunctival edema score (External Segment) / Palpebral conjunctival injection score (External Segment): ophthalmitis I; for Anterior chamber opacity score (Internal Segment) / Balbar conjunctival injection score (External Segment) / Corneal opacity score (External Segment) / Discharge score (External Segment) / External + Internal Grand Total Score / External Segment Total Score / Internal Segment Total Score / Iridic injection score (Internal Segment) / Morphological change of iris score (Internal Segment) / Palpebral conjunctival edema score (External Segment) / Palpebral conjunctival injection score (External Segment): peak inflammatory period of 3 days, mean ± SE
Description: (§1) Seventeen male white rabbits weighing about 2 kg were used. They were fed with 80 g of Labo RG-RO (Nippon Agricultural Co., Ltd.) daily and had free access to tap water.
(§2) After 28 days when ophthalmitis I had nearly recovered, 2.5% BSA solution was administered in a dose of 25 mg/ml/kg into the auricular vein to cause ophthalmitis (ophthalmitis II). The severity of ophthalmitis was rated according to the rating scale^(1) of Yamauchi et al., based on the Draize method in which an increased weight given to the internal segment of the eye. Observation was made with a frequency of once in one or two days during the peak period of inflammation and once in three or four days before and after the peak period for ophthalmitis I and 3, 6, 12 and 24 hours after intravenous injection of BSA for ophthalmitis II.
(§3) ^(1) Hideyasu Yamauchi, Makoto Ingu, Tadashi Iso and Kozo Uda: Anti-inflammatory effect of fluorometholone ophthalmic solution in experimental uveitis in rabbits, Folia Ophthalmologica Japonica, 24: 969-79 (1973).
(§4) Gross observation was made on the day after injection of BSA into the vitreous body and with the animals arranged in the decreasing order of severity of ocular inflammation, grouping was carried out in such a manner that the intensity distribution would be uniform over the groups. Thus, a physiological saline group of 7 animals, a 0.1% Compound [I] instillation group of 4 animals and a 0.5% Compound [I] instillation group of 5 animals were provided. After this grouping procedure, the test drugs and saline were respectively instilled into both eyes of the rabbits, 50 μl per dose, 4 times a day. For induction of ophthalmitis II, each drug was instilled into both eyes, 50 μl per dose, immediately after injection of BSA into the auricular vein and at 1-hour intervals thereafter, for a total of 14 times.

[2] = tested on: experimental ophthalmitis induced by bovine serum albumin in white rabbits (ophthalmitis II); test: Anti-inflammatory effect in ophthalmitis II (intravenous bovine serum albumin relapse), gross severity scores; assay type: in vivo; settings: 0.1%, ophthalmitis II
Description: as §1, §2, §3, §4

Nc1c(CC(=O)[O-])cccc1C(=O)c1ccc(Br)cc1.O.[Na+] [Compound [I], Sodium 3-(4-bromobenzoyl)-2-aminophenylacetate monohydrate]
Inhibition of ophthalmitis I for the external and the internal segment of the eye ([1]; 0.1% and 0.5%): potent and dose-dependent inhibition for both the external and the internal segment of the eye
Anterior chamber opacity, degree of inhibition relative to physiological saline group ([1]; 0.1%): -20.0%
Balbar conjunctival injection, degree of inhibition relative to physiological saline group ([1]; 0.1%): 30.8%
Corneal opacity, degree of inhibition relative to physiological saline group ([1]; 0.1%): 60.0%
Discharge, degree of inhibition relative to physiological saline group ([1]; 0.1%): 100%
External + Internal Grand Total Score, degree of inhibition relative to physiological saline group ([1]; 0.1%): 41.8%
External Segment Total Score, degree of inhibition relative to physiological saline group ([1]; 0.1%): 50.4%
Internal Segment Total Score, degree of inhibition relative to physiological saline group ([1]; 0.1%): 32.6%
Iridic injection, degree of inhibition relative to physiological saline group ([1]; 0.1%): 57.4%
Morphological change of iris, degree of inhibition relative to physiological saline group ([1]; 0.1%): 34.1%
Palpebral conjunctival edema, degree of inhibition relative to physiological saline group ([1]; 0.1%): 85.7%
Palpebral conjunctival injection, degree of inhibition relative to physiological saline group ([1]; 0.1%): 65.8%
Anterior chamber opacity score (Internal Segment) ([1]; 0.1%): 3.6 ± 0.8
Balbar conjunctival injection score (External Segment) ([1]; 0.1%): 4.5 ± 0.6
Corneal opacity score (External Segment) ([1]; 0.1%): 1.0 ± 0.4
Discharge score (External Segment) ([1]; 0.1%): 0
External + Internal Grand Total Score ([1]; 0.1%): 15.9 ± 1.8
External Segment Total Score ([1]; 0.1%): 6.8 ± 1.0
Internal Segment Total Score ([1]; 0.1%): 9.1 ± 1.0
Iridic injection score (Internal Segment) ([1]; 0.1%): 2.6 ± 0.2
Morphological change of iris score (Internal Segment) ([1]; 0.1%): 2.9 ± 0.4
Palpebral conjunctival edema score (External Segment) ([1]; 0.1%): 0.1 ± 0.1
Palpebral conjunctival injection score (External Segment) ([1]; 0.1%): 1.3 ± 0.2
Anterior chamber opacity, degree of inhibition relative to physiological saline group ([1]; 0.5%): 33.3%
Balbar conjunctival injection, degree of inhibition relative to physiological saline group ([1]; 0.5%): 74.5%
Corneal opacity, degree of inhibition relative to physiological saline group ([1]; 0.5%): 48.0%
Discharge, degree of inhibition relative to physiological saline group ([1]; 0.5%): 100%
External + Internal Grand Total Score, degree of inhibition relative to physiological saline group ([1]; 0.5%): 63.0%
External Segment Total Score, degree of inhibition relative to physiological saline group ([1]; 0.5%): 74.5%
Internal Segment Total Score, degree of inhibition relative to physiological saline group ([1]; 0.5%): 51.1%
Iridic injection, degree of inhibition relative to physiological saline group ([1]; 0.5%): 70.5%
Morphological change of iris, degree of inhibition relative to physiological saline group ([1]; 0.5%): 34.1%
Palpebral conjunctival edema, degree of inhibition relative to physiological saline group ([1]; 0.5%): 100%
Palpebral conjunctival injection, degree of inhibition relative to physiological saline group ([1]; 0.5%): 36.8%
Anterior chamber opacity score (Internal Segment) ([1]; 0.5%): 2.0 ± 0.4
Balbar conjunctival injection score (External Segment) ([1]; 0.5%): 1.6 ± 0.2
Corneal opacity score (External Segment) ([1]; 0.5%): 0.4 ± 0.2
Discharge score (External Segment) ([1]; 0.5%): 0
External + Internal Grand Total Score ([1]; 0.5%): 10.1 ± 1.0
External Segment Total Score ([1]; 0.5%): 3.5 ± 0.4
Internal Segment Total Score ([1]; 0.5%): 6.6 ± 0.8
Iridic injection score (Internal Segment) ([1]; 0.5%): 1.8 ± 0.2
Morphological change of iris score (Internal Segment) ([1]; 0.5%): 2.9 ± 0.4
Palpebral conjunctival edema score (External Segment) ([1]; 0.5%): 0
Palpebral conjunctival injection score (External Segment) ([1]; 0.5%): 1.5 ± 0.3
Anterior chamber opacity, degree of inhibition relative to physiological saline group [2]: -47.4%
Balbar conjunctival injection, degree of inhibition relative to physiological saline group [2]: 27.0%
Corneal opacity, degree of inhibition relative to physiological saline group [2]: 57.1%
Discharge, degree of inhibition relative to physiological saline group [2]: 100%
External + Internal Grand Total Score, degree of inhibition relative to physiological saline group [2]: 35.7%
External Segment Total Score, degree of inhibition relative to physiological saline group [2]: 32.7%
Internal Segment Total Score, degree of inhibition relative to physiological saline group [2]: 40.7%
Iridic injection, degree of inhibition relative to physiological saline group [2]: 61.6%
Morphological change of iris, degree of inhibition relative to physiological saline group [2]: 44.2%

From patent US4910225A, “Locally administrable therapeutic composition for inflammatory disease” (Senju Pharmaceutical Co., Ltd., priority 1988, dated 1990)
